This test has as its target Human D1 Receptor (Homo sapiens (Human), UniProt P21728). Nature of the test: Human D1 receptor binding assay ([^3H]-SCH23390 competition). The note with it: read-out: Human D1 Receptor Binding, Ki (nM), Geometric mean of 2-4 determinations (unless otherwise indicated). As for the experimental part: D1 binding assays were performed using over-expressing LTK human cell lines. […] These ligand and tissue concentrations were used in time course studies to determine linearity and equilibrium conditions for binding. […] The pellet was resuspended in assay buffer [50 mM Tris (pH 7.4@ RT) containing 4 mM MgSO4 and 0.5 mM EDTA]. […] Non-specific binding was determined by radioligand binding in the presence of a saturating concentration of (+)-Butaclamol (10 μM), a D1 antagonist. After a 30 minute incubation period at 37° C., assay samples were rapidly filtered through Unifilter-96 GF/B PEI-coated filter plates and rinsed with 50 mM Tris buffer (pH 7.4 at 4° C.). […] Ki values were calculated according to the Cheng-Prusoff equation: […]

Ki data for 3 compounds are collected here from patent publication US9868744B2, “Heteroaromatic compounds and their use as dopamine D1 ligands” (PFIZER INC., priority 2014, dated 2018).

Read-outs that look alike come from different tables or passages of the source.

Human D1 Receptor, sequence (P21728 whole entry): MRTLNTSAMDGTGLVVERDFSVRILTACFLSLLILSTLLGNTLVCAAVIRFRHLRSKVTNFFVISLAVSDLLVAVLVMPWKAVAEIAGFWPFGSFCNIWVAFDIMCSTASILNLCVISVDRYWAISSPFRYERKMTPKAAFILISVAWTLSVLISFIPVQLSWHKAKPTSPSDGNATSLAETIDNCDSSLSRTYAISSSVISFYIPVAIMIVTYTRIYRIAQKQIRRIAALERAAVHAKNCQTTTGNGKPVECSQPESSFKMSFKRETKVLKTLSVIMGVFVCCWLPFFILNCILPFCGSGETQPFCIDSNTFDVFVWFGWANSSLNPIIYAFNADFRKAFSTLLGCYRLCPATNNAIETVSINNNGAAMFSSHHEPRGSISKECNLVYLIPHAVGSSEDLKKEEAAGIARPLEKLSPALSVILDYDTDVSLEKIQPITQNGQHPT

Broadly, the Ki is the equilibrium dissociation constant of an inhibitor or competing ligand from its target. Turning to `Cc1cc(Oc2ncnc3occc23)ccc1-c1c(C)ncnc1C` [Example 1, 4-[4-(4,6-dimethylpyrimidin-5-yl)-3-methylphenoxy]furo[2,3-d]pyrimidine], the inhibitory constant (Ki) is 166 nM. Same read-out and setting: next, `Cc1cc(Oc2nccc3[nH]cnc23)ccc1-c1c(C)ncc2nccn12` [Example 2, 4-[3-methyl-4-(6-methylimidazo[1,2-a]pyrazin-5-yl)phenoxy]-1H-imidazo[4,5-c]pyridine]: 374 nM.

Turning to `Cc1cc(Oc2nccc3sncc23)ccc1-c1c(C)n[nH]c(=O)c1C` [Example 10, 4,6-dimethyl-5-[2-methyl-4-([1,2]thiazolo[4,5-c]pyridin-4-yloxy)phenyl]pyridazin-3(2H)-one], the Ki (competition with 0.5 nM [^3H]-SCH23390, over-expressing LTK human cell lines, 30 min at 37° C., values marked ^a are from a single determination) was determined as 32.7 nM.
